Assay results: patent US11020398B2, “Amino-pyrrolopyrimidinone compounds and methods of use thereof” (ArQule, Inc., priority 2016, dated 2021)

What was measured:
[1] = target: full-length activated BTK mutant C481S (Homo sapiens (Human), UniProt Q06187, C481S); assay: AlphaScreen assay, BTK mutant C481S; type: biochemical
Method: (§1) The activated BTK was frozen in 50 μl aliquots (125-150 μg/ml).
(§2) BTK activity was assayed using a PLCγ2-derived biotinylated peptide substrate (biotin-[…]-OH) and AlphaScreen™ (Amplified Luminescent Proximity Homogeneous Assay) technology. The extent of peptide phosphorylation was determined by using acceptor beads conjugated to phosphotyrosine antibody that recognized the phosphorylated peptide and donor beads conjugated to streptavidin that binds to the biotin on the peptide. Excitation of the donor beads converted ambient oxygen to excited singlet oxygen which when in close proximity to acceptor beads, reacted with acceptor beads resulting in signal amplification.
(§3) Test inhibitors and controls were prepared in 10% DMSO at 10-fold the desired final concentration and added to each well of a reaction plate (Corning 96-well half-area solid white nonbinding surface plate) in a volume of 2.5 μl. […] The plate was incubated for 120 min at room temperature and the reaction stopped by the addition of 10 μl stop/detection mixture containing 35 mM EDTA, 50 ug/ml AlphaScreen™ Streptavidin Donor beads (final concentration is 500 ng/well) and AlphaScreen™ Phospho-tyrosine (P-Tyr-100) Acceptor beads (final concentration is 500 ng/well) under green light conditions. The plate was incubated overnight at room temperature in the dark and the plates read on the BMG PolarStar Omega ([…], Gain=4000). Data were archived and analyzed with a 4-parameter fit to generate IC50 values using the CDD Vault from Collaborative Drug Discovery.

[2] = target: full-length activated BTK (wildtype) (Homo sapiens (Human), UniProt Q06187); assay: AlphaScreen assay, wild-type BTK; type: biochemical
Sequence of full-length activated BTK (wildtype) (Q06187 whole entry): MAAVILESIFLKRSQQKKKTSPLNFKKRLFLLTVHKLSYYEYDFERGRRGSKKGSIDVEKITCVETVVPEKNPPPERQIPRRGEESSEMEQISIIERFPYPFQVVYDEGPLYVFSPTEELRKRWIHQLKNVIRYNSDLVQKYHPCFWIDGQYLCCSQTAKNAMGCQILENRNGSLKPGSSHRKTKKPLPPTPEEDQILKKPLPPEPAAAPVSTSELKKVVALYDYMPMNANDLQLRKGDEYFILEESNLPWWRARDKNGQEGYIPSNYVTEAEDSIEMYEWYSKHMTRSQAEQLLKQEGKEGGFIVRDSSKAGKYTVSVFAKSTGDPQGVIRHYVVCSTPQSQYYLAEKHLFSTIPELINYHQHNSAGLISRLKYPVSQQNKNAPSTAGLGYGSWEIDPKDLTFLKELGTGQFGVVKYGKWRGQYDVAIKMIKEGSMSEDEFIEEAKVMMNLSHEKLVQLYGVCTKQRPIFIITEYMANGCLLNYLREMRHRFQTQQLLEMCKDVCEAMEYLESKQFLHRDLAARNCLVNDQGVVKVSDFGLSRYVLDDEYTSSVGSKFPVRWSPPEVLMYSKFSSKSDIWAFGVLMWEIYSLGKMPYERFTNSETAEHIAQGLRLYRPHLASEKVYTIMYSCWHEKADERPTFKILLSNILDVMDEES
Method: as §1, §2, §3

Sequence of full-length activated BTK mutant C481S (Q06187 whole entry C481S): as the sequence (Q06187 whole entry) above, with C481S counted along it

| Structure (SMILES) | IC50 [1] | IC50 [2] |
| --- | --- | --- |
| C=CC(=O)N1CCCC(Nc2ncnc3[nH]cc(C(=O)c4ccc(Oc5ccccc5)cc4Cl)c23)C1 (racemic) [Compound I-321r, (racemic)-1-(3-((5-(2-chloro-4-phenoxybenzoyl)-7H-pyrrolo[2,3-d]pyrimidin-4-yl)amino)piperidin-1-yl)prop-2-en-1-one] | 179 nM | 4.5 nM |
| C=CS(=O)(=O)N1CCCC(Nc2ncnc3[nH]cc(C(=O)c4ccc(Oc5ccccc5)cc4Cl)c23)C1 (racemic) [Compound I-322r, (racemic)-(2-chloro-4-phenoxyphenyl)(4-((1-(vinylsulfonyl)piperidin-3-yl)amino)-7H-pyrrolo[2,3-d]pyrimidin-5-yl)methanone] | 98.6 nM | 10.4 nM |
| CC#CC(=O)N1CCCC(Nc2ncnc3[nH]cc(C(=O)c4ccc(Oc5ccccc5)cc4Cl)c23)C1 (racemic) [Compound I-324r, (racemic)-1-(3-((5-(2-chloro-4-phenoxybenzoyl)-7H-pyrrolo[2,3-d]pyrimidin-4-yl)amino)piperidin-1-yl)but-2-yn-1-one] | 105 nM | 17.2 nM |
| C=CC(=O)N1CCCC1CNc1ncnc2[nH]cc(C(=O)c3ccc(Oc4ccccc4)cc3Cl)c12 (racemic) [Compound I-325r, (racemic)-1-(2-(((5-(2-chloro-4-phenoxybenzoyl)-7H-pyrrolo[2,3-d]pyrimidin-4-yl)amino)methyl)pyrrolidin-1-yl)prop-2-en-1-one] | 136 nM | 0.98 nM |
| C=CS(=O)(=O)N1CCCC1CNc1ncnc2[nH]cc(C(=O)c3ccc(Oc4ccccc4)cc3Cl)c12 (racemic) [Compound I-326r, (racemic)-(2-chloro-4-phenoxyphenyl)(4-(((1-(vinylsulfonyl)pyrrolidin-2-yl)methyl)amino)-7H-pyrrolo[2,3-d]pyrimidin-5-yl)methanone] | 419 nM | 4.33 nM |

Now from value to molecule:

| IC50 [1] | IC50 [2] | Structure (SMILES) |
| --- | --- | --- |
| 18.4 nM | 0.98 nM | CC#CC(=O)N1CCCC1CNc1ncnc2[nH]cc(C(=O)c3ccc(Oc4ccccc4)cc3Cl)c12 (racemic) [Compound I-328r, (racemic)-1-(2-(((5-(2-chloro-4-phenoxybenzoyl)-7H-pyrrolo[2,3-d]pyrimidin-4-yl)amino)methyl)pyrrolidin-1-yl)but-2-yn-1-one] |
| 34 nM | 11 nM | O=C(c1ccc(Oc2ccccc2)cc1Cl)c1c[nH]c2ncnc(NC3CCC(CO)NC3)c12 (racemic) [Compound I-343r, rac-(2-chloro-4-phenoxyphenyl)(4-((6-(hydroxymethyl)piperidin-3-yl)amino)-7H-pyrrolo[2,3-d]pyrimidin-5-yl)methanone] |
| 124 nM | 29.4 nM | O=C(c1ccc(Oc2ccccc2)cc1Cl)c1c[nH]c2ncnc(NC[C@H]3CCC[C@@H](CO)N3)c12 (racemic) [Compound I-359e, racemic-cis-(2-chloro-4-phenoxyphenyl)(4-(((6-(hydroxymethyl)piperidin-2-yl)methyl)amino)-7H-pyrrolo[2,3-d]pyrimidin-5-yl)methanone] |
| 59.4 nM | 1.07 nM | CN1[C@H](CO)CCC[C@@H]1CNc1ncnc2[nH]cc(C(=O)c3ccc(Oc4ccccc4)cc3Cl)c12 (racemic) [Compound I-360e, racemic-cis-(2-chloro-4-phenoxyphenyl)(4-(((6-(hydroxymethyl)-1-methylpiperidin-2-yl)methyl)amino)-7H-pyrrolo[2,3-d]pyrimidin-5-yl)methanone] |
| 38.8 nM | 10 nM | CS(=O)(=O)N1CC(Nc2ncnc3[nH]cc(C(=O)c4ccc(Oc5ccccc5)cc4Cl)c23)CCC1CO (racemic) [Compound I-653, (racemic)-(2-chloro-4-phenoxyphenyl)(4-((6-(hydroxymethyl)-1-(methylsulfonyl)piperidin-3-yl)amino)-7H-pyrrolo[2,3-d]pyrimidin-5-yl)methanone] |
